The values below come from US20250145645A1, “BORON CARRYING AGENT, PREPARATION METHOD AND PHARMACEUTICAL FORMULATION THEREOF” (Peking University, priority 2021, published 2025).

In data set [1] the test system is rat cerebral 9L gliosarcoma. The following applies: cited from earlier work.
For data set [2], the system named is cerebral glioma U87MG cells. As to the kind of experiment: Boron uptake in cells, B content by ICP-AES. Conditions: 12 hours, FIG. 3. Type of data set: cell-based. As to the method: (§1) Compound I was formulated into aqueous solutions of 0.1 mg/g. 0.2 mg/g. 0.4 mg/g. 0.6 mg/g and 0.8 mg/g, added to U87MG, U251, A549 and A375 cell lines cultured in 25T petri dishes, respectively, and incubated in a thermostatic incubator for 12 hours. Subsequently, the cells and culture medium were separated, and the number of cells was determined. After the cells were digested with concentrated nitric acid, the B content in the cells was determined by ICP-AES.
(§2) The […] was 249.772 nm.
(§3) Meanwhile, the BPA was formulated into aqueous solutions of 0.1 mg/g, 0.2 mg/g, 0.4 mg/g, 0.6 mg/g, and 0.8 mg/g, added into U87MG, U251, A375 and HS683 cell lines cultured in 25T petri dishes, respectively, and cultured in a thermostatic incubator for 12 hours. Subsequently, the cells and culture medium were separated, and the number of cells was determined. After the cells were digested with concentrated nitric acid, the B content in the cells was determined by ICP-AES and plotted as shown in FIG. 2.

The subject of a further data set is glioma cell line U251. Briefly: Boron uptake in cells, B content by ICP-AES. The format is cell-based. As to the method: as §1, §2, §3
For data set [3], the system named is U87MG, U251, A549 and A375 cell lines. As to the kind of experiment: Boron uptake in tumor cell lines, B content in cells by ICP-AES. The following applies: 0.1-0.8 mg/g aqueous solutions, 12 hours incubation, FIG. 1. The format is cell-based. On the procedure:
as §1, §2

The subject of another data set is HS683 cerebral glioma. As to the kind of experiment: Tissue uptake in mouse cerebral glioma model, ICP-MS. Type of data set: in vivo, BALB/c mice. The following applies: 500 mg/kg via tail vein, two hours after administration, FIG. 4. On the procedure:
Healthy BALB/c mice with an average weight of approximately 21 g were selected and inoculated with HS683 cerebral glioma to establish a mouse cerebral glioma model. After 21 days, the mouse cerebral glioma model was generated, and 500 mg/kg of BPA, temozolomide or compound I solution was injected via the tail vein of the mice. After administration, the major tissues and organs (heart, liver, spleen, lungs, kidneys and tumor sites) of the mice were removed at selected time periods (1 hour, 2 hours, and 4 hours). After washing and weighing, the tissues and organs were digested with concentrated nitric acid. The digested tissue sample was diluted and the concentration in the sample was determined by ICP-MS.

The test system of data set [4] is cerebral glioma HS683 cells. Briefly: Boron uptake in cells, B content by ICP-AES. Type of data set: cell-based. Conditions: 12 hours, FIG. 3.

In the case of `N[C@@H](Cc1ccc(B(O)O)cc1)C(=O)O` [BPA, ^10B-p-Dicarboxylboronic acid phenylalanine], the “uptake by other types of tumor cells” value in data set [1] was “taken up”.
Consider `Cn1nnc2c(C(=O)OCc3ccc([B-]45OCC[N+]4(C)CCO5)cc3)ncn2c1=O` (stereo not shown) [Compound I], for which the “cellular uptake compared with BPA” value in data set [2] is on record as “significantly higher than BPA”; with glioma cell line U251 (U251 cells, 12 hours, FIG. 3), “significantly higher than BPA”; in data set [4] it was “significantly higher than BPA”. Moreover, the “uptake, ranking among cell lines” value with glioma cell line U251 (U251 versus U87MG, A549, A375, within 12 hours) is “best uptake”. Besides, the “boron concentration in the cells (B content in every 10^6 cells)” value in data set [3] was “positively correlated with the concentration of the added product”. Besides, the “uptake in the mouse cerebral glioma site compared with BPA” value with HS683 cerebral glioma is “higher than that of BPA”.
